Measurements taken from patent US12595230B2, “Substituted 6,7-dihydro-5H-benzo[7]annulene compounds and their derivatives, processes for their preparation and therapeutic uses thereof” (Sanofi, priority 2020, dated 2026).

Target: T1, ERα (Homo sapiens, UniProt P03372)
T1 construct: host or cells: MCF7
T1 sequence (P03372 1-595): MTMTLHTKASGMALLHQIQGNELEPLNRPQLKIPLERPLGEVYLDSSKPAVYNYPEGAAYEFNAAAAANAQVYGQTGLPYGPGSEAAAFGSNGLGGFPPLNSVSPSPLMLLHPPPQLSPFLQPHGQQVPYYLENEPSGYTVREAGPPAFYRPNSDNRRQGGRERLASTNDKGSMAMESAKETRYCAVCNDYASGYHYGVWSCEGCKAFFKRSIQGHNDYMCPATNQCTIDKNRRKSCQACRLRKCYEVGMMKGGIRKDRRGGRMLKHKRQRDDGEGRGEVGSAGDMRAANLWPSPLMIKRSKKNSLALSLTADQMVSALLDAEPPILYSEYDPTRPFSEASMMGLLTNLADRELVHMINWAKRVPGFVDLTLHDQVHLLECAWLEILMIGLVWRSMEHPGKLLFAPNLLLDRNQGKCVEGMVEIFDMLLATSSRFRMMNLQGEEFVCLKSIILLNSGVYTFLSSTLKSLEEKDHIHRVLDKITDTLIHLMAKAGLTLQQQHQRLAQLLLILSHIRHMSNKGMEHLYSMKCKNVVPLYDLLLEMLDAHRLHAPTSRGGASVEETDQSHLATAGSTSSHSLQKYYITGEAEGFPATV
Assay: Estrogen receptor degradation activity: breast cancer cell ERα in cell western assay (MCF7 cells)
Type: cell-based
Conditions: for % Degradation At 0.3 μM: 4 hours, relative to fulvestrant 0.1 μM positive control; for DC50 / IC50: 4 hours post compound addition, concentration which degrades 50% of the estrogen receptor; for DC50: read-out: Degradation IC50
Procedure, shortened: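 Compounds were applied to MCF7 cells in stripped-serum, phenol red-free medium for 4 h at final 0.3–0.0000018 μM, with fulvestrant (0.1 μM) as control. Value: IC50 (nM) for 50% ERα degradation.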

% Degradation At 0.3 μM [%] | DC50 [nM] | IC50 [nM] | Compound
83 | 0.3 |  | CCC(CC)CC1=C(c2ccc(CC3CN(CCCF)C3)cc2)c2ccc(C(=O)O)cc2CCC1 [Example 231, 8-(2-Ethylbutyl)-9-(4-((1-(3-fluoropropyl)azetidin-3-yl)methyl)phenyl)-6,7-dihydro-5H-benzo[7]annulene-3-carboxylic Acid]
88 |  | 0.1 | O=C(O)c1ccc2c(c1)CCCC(c1cccc(F)c1C(F)(F)F)=C2c1ccc(CC2CN(CCCF)C2)cc1 [Example 232, 8-(3-fluoro-2-(trifluoromethyl)phenyl)-9-(4-((1-(3-fluoropropyl)azetidin-3-yl)methyl)phenyl)-6,7-dihydro-5H-benzo[7]annulene-3-carboxylic acid]
85 | 0.5 |  | O=C(O)c1ccc2c(c1)CCCC(c1ccc(Cl)cc1Cl)=C2c1ccc(CC2(O)CN(CCCF)C2)cc1 [Example 233, 8-(2,4-dichlorophenyl)-9-(4-((1-(3-fluoropropyl)-3-hydroxyazetidin-3-yl)methyl)phenyl)-6,7-dihydro-5H-benzo[7]annulene-3-carboxylic acid]
84 | 1.3 |  | O=C(O)c1ccc2c(c1)CCCC(c1ncc(Cl)cc1Cl)=C2c1ccc(CC2CN(CCCF)C2)cc1 [Example 234, 8-(3,5-dichloropyridin-2-yl)-9-(4-((1-(3-fluoropropyl)azetidin-3-yl)methyl)phenyl)-6,7-dihydro-5H-benzo[7]annulene-3-carboxylic acid]
88 | 5.8 |  | O=C(O)c1ccc2c(c1)CCCC(c1ccc(Cl)cc1C(F)(F)F)=C2c1ccc(CC2(F)CN(CCCF)C2)cc1 [Example 237, 8-(4-chloro-2-(trifluoromethyl)phenyl)-9-(4-((3-fluoro-1-(3-fluoropropyl)azetidin-3-yl)methyl)phenyl)-6,7-dihydro-5H-benzo[7]annulene-3-carboxylic acid]
81 | 1.2 |  | O=C(O)c1ccc2c(c1)CCCC(c1ccccc1C(F)(F)F)=C2c1ccc(CC2(F)CN(CCCF)C2)cc1 [Example 238, 9-(4-((3-fluoro-1-(3-fluoropropyl)azetidin-3-yl)methyl)phenyl)-8-(2-(trifluoromethyl)phenyl)-6,7-dihydro-5H-benzo[7]annulene-3-carboxylic acid]
93 | 0.4 |  | O=C(O)c1ccc2c(c1)CCCC(c1ccc(Cl)cc1Cl)=C2c1ccc(CC2CN(CCCF)C2)c(F)c1 [Example 239, 8-(2,4-dichlorophenyl)-9-(3-fluoro-4-((1-(3-fluoropropyl)azetidin-3-yl)methyl)phenyl)-6,7-dihydro-5H-benzo[7]annulene-3-carboxylic acid]
85 | 0.5 |  | Cc1cc(CC2CN(CCCF)C2)ccc1C1=C(c2ccc(Cl)cc2Cl)CCCc2cc(C(=O)O)ccc21 [Example 240, 8-(2,4-dichlorophenyl)-9-(4-((1-(3-fluoropropyl)azetidin-3-yl)methyl)-2-methylphenyl)-6,7-dihydro-5H-benzo[7]annulene-3-carboxylic acid]
92 | 3.7 |  | O=C(O)c1ccc2c(c1)CCCC(c1ccc(F)cc1C(F)(F)F)=C2c1ccc(CC2(F)CN(CCCF)C2)cc1 [Example 241, 9-(4-((3-fluoro-1-(3-fluoropropyl)azetidin-3-yl)methyl)phenyl)-8-(4-fluoro-2-(trifluoromethyl)phenyl)-6,7-dihydro-5H-benzo[7]annulene-3-carboxylic acid]
78 | 1.7 |  | O=C(O)c1ccc2c(c1)CCCC(c1ccc(F)cc1Cl)=C2c1ccc(CC2(F)CN(CCCF)C2)cc1 [Example 242, 8-(2-chloro-4-fluorophenyl)-9-(4-((3-fluoro-1-(3-fluoropropyl)azetidin-3-yl)methyl)phenyl)-6,7-dihydro-5H-benzo[7]annulene-3-carboxylic acid]
100 | 269 |  | N#Cc1cc2c(cc1C(=O)O)CCCC(c1ccc(Cl)cc1Cl)=C2c1ccc(CC2CN(CCCF)C2)cc1 [Example 245, 2-cyano-8-(2,4-dichlorophenyl)-9-(4-((1-(3-fluoropropyl)azetidin-3-yl)methyl)phenyl)-6,7-dihydro-5H-benzo[7]annulene-3-carboxylic acid]

The remaining lines, values behind:

Compound | % Degradation At 0.3 μM [%] | DC50 [nM] | IC50 [nM]
O=C(O)c1ccc2c(c1)CCCC(c1cnccc1C(F)(F)F)=C2c1ccc(CC2CN(CCCF)C2)cc1 [Example 214, 9-(4-((1-(3-fluoropropyl)azetidin-3-yl)methyl)phenyl)-8-(4-(trifluoromethyl)pyridin-3-yl)-6,7-dihydro-5H-benzo[7]annulene-3-carboxylic acid] | 86 | 2.8 | 
Cl.O=C(O)c1ccc2c(c1)CCCC(c1ccc(Cl)cc1Cl)=C2c1ccc(C2(C3CN(CCCF)C3)CC2)cc1 [Example 215, 8-(2,4-dichlorophenyl)-9-(4-(1-(1-(3-fluoropropyl)azetidin-3-yl)cyclopropyl)phenyl)-6,7-dihydro-5H-benzo[7]annulene-3-carboxylic acid hydrochloride] | 67 | 0.3 | 
O=C(O)c1c(F)cc2c(c1F)CCCC(c1ccc(F)cc1Cl)=C2c1ccc(CC2CN(CCCF)C2)cc1 [Example 216, 8-(2-chloro-4-fluorophenyl)-2,4-difluoro-9-(4-((1-(3-fluoropropyl)azetidin-3-yl)methyl)phenyl)-6,7-dihydro-5H-benzo[7]annulene-3-carboxylic acid] | 83 | 13.2 | 
Cc1ccc(C2=C(c3ccc(CC4CN(CCCF)C4)cc3)c3cc(F)c(C(=O)O)c(F)c3CCC2)c(Cl)c1 [Example 217, 8-(2-chloro-4-methylphenyl)-2,4-difluoro-9-(4-((1-(3-fluoropropyl)azetidin-3-yl)methyl)phenyl)-6,7-dihydro-5H-benzo[7]annulene-3-carboxylic acid] | 86 | 6.2 | 
O=C(O)c1ccc2c(c1)CCCC(c1ncc(Cl)cc1C(F)(F)F)=C2c1ccc(CC2CN(CCCF)C2)cc1 [Example 218, 8-(5-chloro-3-(trifluoromethyl)pyridin-2-yl)-9-(4-((1-(3-fluoropropyl)azetidin-3-yl)methyl)phenyl)-6,7-dihydro-5H-benzo[7]annulene-3-carboxylic acid] | 92 | 0.5 | 
O=C(O)c1ccc2c(c1)CCCC(c1ncc(Cl)cc1F)=C2c1ccc(CC2CN(CCCF)C2)cc1 [Example 219, 8-(5-chloro-3-fluoropyridin-2-yl)-9-(4-((1-(3-fluoropropyl)azetidin-3-yl)methyl)phenyl)-6,7-dihydro-5H-benzo[7]annulene-3-carboxylic acid] | 92 | 6.5 | 
O=C(O)c1ccc2c(c1)CCCC(c1c(F)cccc1Cl)=C2c1ccc(CC2CN(CCCF)C2)cc1 [Example 220, 8-(2-chloro-6-fluorophenyl)-9-(4-((1-(3-fluoropropyl)azetidin-3-yl)methyl)phenyl)-6,7-dihydro-5H-benzo[7]annulene-3-carboxylic acid] | 87 | 0.3 | 
O=C(O)c1ccc2c(c1)CCCC(c1ccc(Cl)cc1C(F)F)=C2c1ccc(CC2CN(CCCF)C2)cc1 [Example 221, 8-(4-chloro-2-(difluoromethyl)phenyl)-9-(4-((1-(3-fluoropropyl)azetidin-3-yl)methyl)phenyl)-6,7-dihydro-5H-benzo[7]annulene-3-carboxylic acid] | 91 | 0.2 | 
O=C(O)c1ccc2c(c1)CCCC(c1ccc(Cl)cc1Cl)=C2c1ccc(CC2CN(CCC(F)F)C2)cc1 [Example 223, 8-(2,4-dichlorophenyl)-9-(4-((1-(3,3-difluoropropyl)azetidin-3-yl)methyl)phenyl)-6,7-dihydro-5H-benzo[7]annulene-3-carboxylic acid] | 92 | 0.2 | 
O=C(O)c1c(F)cc2c(c1F)CCCC(c1ccccc1Cl)=C2c1ccc(CC2CN(CCCF)C2)cc1 [Example 224] | 82 | 43 | 
O=C(O)c1c(F)cc2c(c1F)CCCC(c1ccc(Cl)cc1Cl)=C2c1ccc(CC2CN(CCCF)C2)cc1 [Example 225, 8-(2,4-dichlorophenyl)-2,4-difluoro-9-(4-((1-(3-fluoropropyl)azetidin-3-yl)methyl)phenyl)-6,7-dihydro-5H-benzo[7]annulene-3-carboxylic acid] | 82 | 6.6 | 
O=C(O)c1ccc2c(c1)CCCC(c1cccc(Cl)c1C(F)(F)F)=C2c1ccc(CC2CN(CCCF)C2)cc1 [Example 226, 8-(3-chloro-2-(trifluoromethyl)phenyl)-9-(4-((1-(3-fluoropropyl)azetidin-3-yl)methyl)phenyl)-6,7-dihydro-5H-benzo[7]annulene-3-carboxylic acid] | 90 |  | 0.1
